# Laboratory results taken from ChEMBL document CHEMBL4130359, “Indazole-based ligands for estrogen-related receptor α as potential anti-diabetic agents” (Eur J Med Chem, 2017).
# Assays:
# [1] = test system: Rattus norvegicus; test: Antidiabetic activity in Zucker rat sub-chronic fa/fa prediabetic model assessed as decrease in plasma glucose AUC (0 to 120 mins) at 10 mg/kg, po qd during 10 days study by OGTT relative to control; assay type: functional; parameters: scale not given: the % may be the effect or the level left
# [2] = test system: Rattus norvegicus; test: Effect on COX4I1 gene expression in epididymal white adipose tissue of Zucker rat sub-chronic fa/fa prediabetic model at 10 mg/kg, po qd for 15 days by microarray analysis relative to control; assay type: functional
# [3] = test system: Rattus norvegicus; test: Effect on ABCG1 gene expression in epididymal white adipose tissue of Zucker rat sub-chronic fa/fa prediabetic model at 10 mg/kg, po qd for 15 days by microarray analysis relative to control; assay type: functional
# [4] = Oral bioavailability in Sprague-Dawley rat at 10 mg/kg administered via gavage by LC-MS analysis; assay type: ADME, organism-based; details: in vivo
# [5] = test system: Rattus norvegicus; test: Toxicity in Zucker rat sub-chronic fa/fa prediabetic model assessed as food intake at 1 mg/kg, po qd for 29 days measured on day 1 to 29 during compound dosing (reference value: 969 +/- 18 g); assay type: organism-based; details: in vivo, 696 h
# [6] = test system: Rattus norvegicus; test: Toxicity in Zucker rat sub-chronic fa/fa prediabetic model assessed as serum BUN level at 1 mg/kg, po qd for 31 days measured on day 32 (reference value: 28.3 +/- […]); assay type: organism-based; details: in vivo, 744 h
# [7] = test system: Rattus norvegicus; test: Effect on NDUFB10 gene expression in epididymal white adipose tissue of Zucker rat sub-chronic fa/fa prediabetic model at 10 mg/kg, po qd for 15 days by microarray analysis relative to control; assay type: functional
# [8] = test system: Rattus norvegicus; test: Effect on HLA-DRA gene expression in epididymal white adipose tissue of Zucker rat sub-chronic fa/fa prediabetic model at 10 mg/kg, po qd for 15 days by microarray analysis relative to control; assay type: functional
# [9] = test system: Rattus norvegicus; test: Toxicity in […] model assessed as serum ALT level at 10 mg/kg, po qd for 31 days measured on day 32 (reference value: 127 +/- 9 U/L); assay type: organism-based; details: in vivo, 744 h
# [10] = test system: Rattus norvegicus; test: Antidiabetic activity in Zucker rat sub-chronic fa/fa prediabetic model assessed as fasting blood glucose level at 50 mg/kg, po qd for 31 days measured on day 29 post dose (reference value: 163 +/- 9.2 mg/dl); assay type: functional
# [11] = test system: Rattus norvegicus; test: Toxicity in Zucker rat sub-chronic fa/fa prediabetic model assessed as triglyceride level per gram liver at 10 mg/kg, po qd for 31 days measured on day 32 (reference value: 163.4 +/- 8.3 mg); assay type: organism-based; details: in vivo, 744 h
# [12] = test system: Rattus norvegicus; test: Effect on PRDX3 gene expression in epididymal white adipose tissue of Zucker rat sub-chronic fa/fa prediabetic model at 10 mg/kg, po qd for 15 days by microarray analysis relative to control; assay type: functional
# [13] = test system: Rattus norvegicus; test: Decrease in fed plasma glucose level in Zucker rat sub-chronic fa/fa prediabetic model at 10 mg/kg, po qd for 4 days measured on day 5 relative to control; assay type: functional; parameters: scale not given: the % may be the effect or the level left
# [14] = test system: Rattus norvegicus; test: Toxicity in Zucker rat sub-chronic fa/fa prediabetic model assessed as food intake at 50 mg/kg, po qd for 29 days measured on day 1 to 29 during compound dosing (reference value: 969 +/- 18 g); assay type: organism-based; details: in vivo, 696 h
# [15] = AUC (0 to 24 hrs) in CD-1 mouse at 20 mg/kg administered via oral gavage by LC-MS analysis; assay type: ADME, organism-based; parameters: dose 20 mg/kg, time < 24 hr, route oral; details: in vivo
# [16] = test system: Rattus norvegicus; test: Toxicity in Zucker rat sub-chronic fa/fa prediabetic model assessed as body weight at 1 mg/kg, po qd for 29 days measured on day 29 post last dose (reference value: 533 +/- 10 g); assay type: organism-based; details: in vivo, 696 h
# [17] = target: Peroxisome proliferator-activated receptor gamma (Homo sapiens, UniProt P37231); test: Inhibition of fluormone PPARgamma Green binding to recombinant N-terminal GST-tagged human PPARgamma LBD by fluorescence polarization assay
# [18] = test system: Rattus norvegicus; test: Effect on NR1H3 gene expression in epididymal white adipose tissue of Zucker rat sub-chronic fa/fa prediabetic model at 10 mg/kg, po qd for 15 days by microarray analysis relative to control; assay type: functional
# [19] = test system: Rattus norvegicus; test: Toxicity in Zucker rat sub-chronic fa/fa prediabetic model assessed as triglyceride level per gram liver at 50 mg/kg, po qd for 31 days measured on day 32 (reference value: 163.4 +/- 8.3 mg); assay type: organism-based; details: in vivo, 744 h
# [20] = test system: Rattus norvegicus; test: Toxicity in Zucker rat sub-chronic fa/fa prediabetic model assessed as insulin level per gram pancreas at 10 mg/kg, po qd for 31 days measured on day 32 (reference value: 55.2 +/- 5.5 ug); assay type: organism-based; details: in vivo, 744 h
# [21] = Half life in Sprague-Dawley rat at 2 mg/kg, iv by LC-MS analysis; assay type: ADME, organism-based; details: in vivo
# [22] = test system: Rattus norvegicus; test: Toxicity in […] chronic ob/ob model assessed as epididymal white adipose tissue weight at 10 mg/kg, po qd for 31 days measured on day 32 (reference value: 3.92 +/- 0.14 g); assay type: organism-based; details: in vivo, 744 h
# [23] = test system: Rattus norvegicus; test: Effect on ACADM gene expression in epididymal white adipose tissue of Zucker rat sub-chronic fa/fa prediabetic model at 10 mg/kg, po qd for 15 days by microarray analysis relative to control; assay type: functional
# [24] = Drug uptake in kidney of Zucker rat sub-chronic fa/fa prediabetic model at 12.5 mg/kg, po qd for 11 days; assay type: ADME, organism-based; details: read-out: Drug uptake
# [25] = Tmax in […] at 15 mg/kg administered via oral gavage by LC-MS analysis; assay type: ADME, organism-based; details: in vivo
# [26] = target: Peroxisome proliferator-activated receptor delta (Homo sapiens, UniProt Q03181); test: Agonist activity at recombinant GST-tagged human PPARdelta LBD assessed as fluorescein-labeled coactivator peptide recruitment preincubated with enzyme followed by coactivator addition by LanthaScreen TR-FRET assay
# [27] = Drug uptake in heart of Zucker rat sub-chronic fa/fa prediabetic model at 12.5 mg/kg, po qd for 11 days; assay type: ADME, organism-based; details: read-out: Drug uptake
# [28] = test system: Rattus norvegicus; test: Effect on ACOX1 gene expression in epididymal white adipose tissue of Zucker rat sub-chronic fa/fa prediabetic model at 10 mg/kg, po qd for 15 days by microarray analysis relative to control; assay type: functional
# [29] = test system: Rattus norvegicus; test: Toxicity in Zucker rat sub-chronic fa/fa prediabetic model assessed as body weight at 10 mg/kg, po qd for 29 days measured on day 29 post last dose (reference value: 533 +/- 10 g); assay type: organism-based; details: in vivo, 696 h
# [30] = target: Estrogen receptor (Homo sapiens, UniProt P03372); test: Inhibition of fluormone ES2 green binding to recombinant full length human ERalpha expressed in insect cells by fluorescence polarization assay
# [31] = test system: Rattus norvegicus; test: Effect on PGAM2 gene expression in epididymal white adipose tissue of Zucker rat sub-chronic fa/fa prediabetic model at 10 mg/kg, po qd for 15 days by microarray analysis relative to control; assay type: functional
# [32] = test system: Rattus norvegicus; test: Effect on NDUFB5 gene expression in epididymal white adipose tissue of Zucker rat sub-chronic fa/fa prediabetic model at 10 mg/kg, po qd for 15 days by microarray analysis relative to control; assay type: functional
# [33] = test system: Rattus norvegicus; test: Effect on UGP2 gene expression in epididymal white adipose tissue of Zucker rat sub-chronic fa/fa prediabetic model at 10 mg/kg, po qd for 15 days by microarray analysis relative to control; assay type: functional
# Chain of Estrogen receptor (P03372 whole entry): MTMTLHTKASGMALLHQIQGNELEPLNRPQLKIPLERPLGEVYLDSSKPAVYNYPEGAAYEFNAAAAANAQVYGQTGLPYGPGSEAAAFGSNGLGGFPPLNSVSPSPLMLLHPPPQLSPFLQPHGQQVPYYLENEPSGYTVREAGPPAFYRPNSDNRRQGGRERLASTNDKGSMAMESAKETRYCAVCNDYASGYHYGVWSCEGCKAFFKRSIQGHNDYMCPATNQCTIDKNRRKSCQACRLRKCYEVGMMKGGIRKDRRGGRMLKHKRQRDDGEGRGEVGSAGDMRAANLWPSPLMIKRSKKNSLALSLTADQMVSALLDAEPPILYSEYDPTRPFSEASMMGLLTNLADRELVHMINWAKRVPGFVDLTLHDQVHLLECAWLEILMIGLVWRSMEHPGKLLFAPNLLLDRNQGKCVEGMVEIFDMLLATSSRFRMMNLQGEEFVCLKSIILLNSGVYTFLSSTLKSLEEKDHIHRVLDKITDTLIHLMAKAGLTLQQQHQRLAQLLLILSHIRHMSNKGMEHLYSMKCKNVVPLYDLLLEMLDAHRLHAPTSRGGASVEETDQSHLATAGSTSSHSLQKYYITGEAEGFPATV
# Chain of Peroxisome proliferator-activated receptor delta (Q03181 whole entry, the tested form may be a part): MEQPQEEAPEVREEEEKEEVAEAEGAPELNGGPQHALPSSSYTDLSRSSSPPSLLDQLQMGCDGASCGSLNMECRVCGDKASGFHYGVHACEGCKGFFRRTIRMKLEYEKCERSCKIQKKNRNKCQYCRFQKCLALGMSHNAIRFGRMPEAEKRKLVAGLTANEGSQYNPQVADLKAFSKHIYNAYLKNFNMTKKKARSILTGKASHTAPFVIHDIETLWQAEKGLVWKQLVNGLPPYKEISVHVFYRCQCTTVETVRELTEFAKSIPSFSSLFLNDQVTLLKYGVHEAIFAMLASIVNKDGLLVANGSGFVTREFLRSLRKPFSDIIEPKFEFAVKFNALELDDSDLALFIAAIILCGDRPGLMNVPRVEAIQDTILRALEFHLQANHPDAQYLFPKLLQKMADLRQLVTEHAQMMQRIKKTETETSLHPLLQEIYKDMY
# Chain of Peroxisome proliferator-activated receptor gamma (P37231 whole entry, the tested form may be a part): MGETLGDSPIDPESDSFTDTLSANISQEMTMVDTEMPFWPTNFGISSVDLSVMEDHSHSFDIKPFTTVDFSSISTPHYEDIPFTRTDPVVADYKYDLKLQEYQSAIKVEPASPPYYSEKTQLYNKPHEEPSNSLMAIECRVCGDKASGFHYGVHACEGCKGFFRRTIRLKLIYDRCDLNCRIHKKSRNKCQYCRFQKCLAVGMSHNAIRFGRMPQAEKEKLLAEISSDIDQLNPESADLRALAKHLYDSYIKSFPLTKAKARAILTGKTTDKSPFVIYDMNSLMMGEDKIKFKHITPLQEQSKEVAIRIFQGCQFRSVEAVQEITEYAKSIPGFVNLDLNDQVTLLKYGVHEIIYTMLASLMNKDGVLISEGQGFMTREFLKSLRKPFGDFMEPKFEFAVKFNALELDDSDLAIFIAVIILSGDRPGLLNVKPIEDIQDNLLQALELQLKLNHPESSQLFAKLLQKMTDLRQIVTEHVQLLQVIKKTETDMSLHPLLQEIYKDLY
structure (smiles),measurement,setting,value
CN1CC[C@@H](N2C(=O)S/C(=C\c3ccc4c(cnn4Cc4ccc(Cl)cc4C(F)(F)F)c3)C2=O)[C@H](F)C1,Activity,[1],-46%
same,fold change (FC),[2],1.323
same,fold change (FC),[3],1.488
same,bioavailability,[4],84%
same,Activity,[5],975 g
same,Activity,[6],26.9 mg/dL
same,fold change (FC),[7],1.237
same,fold change (FC),[8],-1.201
same,Activity,[9],135 U/L
same,Activity,[10],105 mg/dL
same,Activity,[11],93 mg
same,fold change (FC),[12],1.559
same,Activity,[13],-32%
same,Activity,[14],1049 g
same,AUC(0-t) at 24 h,[15],14600 ng·h/mL
same,Activity,[16],525 g
same,IC50,[17],> 10 µM
same,fold change (FC),[18],1.389
same,Activity,[19],69.4 mg
same,Activity,[20],80.1 µg
same,half-life,[21],6 h
same,Activity,[22],3.29 g
same,fold change (FC),[23],1.475
same,concentration at 264 h,[24],2660 ng/g
same,Tmax,[25],2.5 h
same,EC50,[26],> 10 µM
same,concentration at 264 h,[27],1700 ng/g
same,fold change (FC),[28],1.495
same,Activity,[29],551 g
same,IC50,[30],> 10 µM
same,fold change (FC),[31],1.396
same,fold change (FC),[32],1.206
same,fold change (FC),[33],1.803
